Results taken from PMC2578980 (The Yale Journal of Biology and Medicine, 1998).

Key:
human CCK-BR [1] = molecular target: T1, human CCK-BR (Homo sapiens, UniProt P32239); experiment: Inositol phosphate accumulation; type: cell-based; conditions: for effect on inositol phosphate production (intrinsic activity): high concentrations of non-peptide ligands
T1 sequence (P32239 1-447): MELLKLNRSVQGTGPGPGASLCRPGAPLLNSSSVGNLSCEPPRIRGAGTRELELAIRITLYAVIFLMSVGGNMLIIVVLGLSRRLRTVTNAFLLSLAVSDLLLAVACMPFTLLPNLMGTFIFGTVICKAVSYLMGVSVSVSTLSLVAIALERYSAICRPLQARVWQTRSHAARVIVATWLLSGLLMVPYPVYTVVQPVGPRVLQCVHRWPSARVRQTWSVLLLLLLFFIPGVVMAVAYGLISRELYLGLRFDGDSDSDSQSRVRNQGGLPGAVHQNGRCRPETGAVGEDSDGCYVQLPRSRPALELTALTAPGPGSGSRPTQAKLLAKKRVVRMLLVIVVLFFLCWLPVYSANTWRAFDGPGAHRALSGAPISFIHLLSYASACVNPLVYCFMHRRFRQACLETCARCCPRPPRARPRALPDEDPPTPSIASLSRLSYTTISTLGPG

human CCK-BR [2] = molecular target: T1, human CCK-BR; conditions: human CCK-BR expressed in CHO instead of COS-7 cells; cited from earlier work
gastric acid secretion = conditions: cited from earlier work
human CCK-BR [3] = molecular target: T1, human CCK-BR

| Structure (SMILES) | effect on inositol phosphate production (intrinsic activity) (human CCK-BR [1]) | inositol phosphate formation, percent of the CCK-8 induced maximum (human CCK-BR [1]) [%] | functional classification in CHO cells (human CCK-BR [2]) | intrinsic activity in the rat (gastric acid secretion) | blockade of CCK-8 induced inositol phosphate formation (human CCK-BR [3]) |
| --- | --- | --- | --- | --- | --- |
| Cc1cccc(NC(=O)N[C@@H]2N=C(c3ccccc3)c3ccccc3N(C)C2=O)c1 [L-365,260] | little, if any, effect |  |  |  |  |
| CC1(C)[C@H]2CC[C@@]1(C)[C@H](OC(=O)N[C@](C)(Cc1c[nH]c3ccccc13)C(=O)NC[C@H](NC(=O)CCC(=O)O)c1ccccc1)C2 [PD 135,158] |  | 23 | "true" antagonist |  |  |
| C[C@](Cc1c[nH]c2ccccc12)(NC(=O)OC1C2CC3CC(C2)CC1C3)C(=O)NC[C@H](NC(=O)/C=C/C(=O)O)c1ccccc1 (stereo partly shown) [PD 136,450] |  | 43 |  | no appreciable intrinsic activity |  |
| Cc1cccc(NC(=O)N[C@@H]2N=C(c3ccccc3)c3ccccc3N(CC(=O)c3ccccc3C)C2=O)c1 [YM022, (R)-1-[2,3-dihydro-1-(2'-methylphenacyl)-2-oxo-5-phenyl-1H-1,4-benzodiazepin-3-yl]-3-(3-methylphenyl)urea] | little, if any, effect |  |  |  | completely blocks |
